In patent publication US8410153B2, “Naphthalene isoxazoline invertebrate pest control agents” (E.I. du Pont de Nemours and Company, priority 2007, dated 2013):

Assays:
Format in all cases: in vivo
[1] = system: diamondback moth (Plutella xylostella); assay: Test A: control of diamondback moth on radish plant, foliar spray; settings: sprayed at 50 ppm, held 6 days
Procedure, shortened: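 Radish plants 12–14 days old, pre-infested with about 50 neonate larvae, sprayed at 50 ppm in 10% acetone/water with 300 ppm X-77 surfactant; three replicates. After 6 days at 25° C and 70% RH, feeding damage was scored visually and mortality counted.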

[2] = system: fall armyworm (Spodoptera frugiperda); assay: Test B: control of fall armyworm on corn (maize) plant, foliar spray; settings: sprayed at 50 ppm
Procedure, shortened: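 4-5-day-old corn plants pre-infested with 10-15 1-day-old larvae on insect diet, then sprayed with compound at 50 ppm in 10% acetone/90% water with 300 ppm surfactant, three replicates. Held 6 days at 25° C, 70% RH; feeding damage assessed visually and mortality rated.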

[3] = system: western flower thrips (Frankliniella occidentalis); assay: Test E: control of western flower thrips on Soleil bean plant, contact and/or systemic; settings: held 6 days
Procedure, shortened: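 5–7-day-old Soleil bean plants were sprayed at 250 or 50 ppm in 10% acetone/90% water with 300 ppm X-77 surfactant, three replicates. After drying 1 h, 22–27 adult thrips were added per unit. Mortality and plant damage were rated after 6 days at 25 °C and 45–55% RH.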

Measured: levels of control efficacy (20% or less feeding damage or 80% or more mortality)

CCCNC(=O)CNC(=O)c1ccc(C2=NOC(c3cc(Cl)cc(C(F)(F)F)c3)(C(F)(F)F)C2)c2ccccc12 (stereo not drawn) [Compound 117]
very good to excellent: [1] | [2] | [3]; sprayed at 50 ppm | [3]; sprayed at 250 ppm

CC(C)CNC(=O)CNC(=O)c1ccc(C2=NOC(c3cc(Cl)cc(C(F)(F)F)c3)(C(F)(F)F)C2)c2ccccc12 (stereo not drawn) [Compound 118]
very good to excellent: [1] | [2] | [3]; sprayed at 250 ppm

CCNC(=O)CNC(=O)c1ccc(C2=NOC(c3cc(Cl)cc(C(F)(F)F)c3)(C(F)(F)F)C2)c2ccccc12 (stereo not drawn) [Compound 119]
very good to excellent: [1] | [2] | [3]; sprayed at 50 ppm | [3]; sprayed at 250 ppm

CC(C)(C)CNC(=O)CNC(=O)c1ccc(C2=NOC(c3cc(Cl)cc(C(F)(F)F)c3)(C(F)(F)F)C2)c2ccccc12 (stereo not drawn) [Compound 120]
very good to excellent: [1] | [2] | [3]; sprayed at 50 ppm | [3]; sprayed at 250 ppm

CC(NC(=O)c1ccc(C2=NOC(c3cc(C(F)(F)F)cc(C(F)(F)F)c3)(C(F)(F)F)C2)c2ccccc12)C(=O)NC(C)C(F)(F)F (stereo not drawn) [Compound 121]
very good to excellent: [1] | [2] | [3]; sprayed at 250 ppm
